{"source": "patent US7999108B2", "about": "“Benzyl amines, a process for their production and their use as anti-inflammatory agents” (Bayer Schering Pharma AG, priority 2006, dated 2011)", "key": {"[1]": {"molecular_target": "T1, glucocorticoid receptor (GR) (Homo sapiens, UniProt P04150)", "T1 construct": "made in house; host or cells: Sf9 insect cells infected with recombinant baculovirus; cytosol preparation", "T1 sequence (P04150 1-777)": "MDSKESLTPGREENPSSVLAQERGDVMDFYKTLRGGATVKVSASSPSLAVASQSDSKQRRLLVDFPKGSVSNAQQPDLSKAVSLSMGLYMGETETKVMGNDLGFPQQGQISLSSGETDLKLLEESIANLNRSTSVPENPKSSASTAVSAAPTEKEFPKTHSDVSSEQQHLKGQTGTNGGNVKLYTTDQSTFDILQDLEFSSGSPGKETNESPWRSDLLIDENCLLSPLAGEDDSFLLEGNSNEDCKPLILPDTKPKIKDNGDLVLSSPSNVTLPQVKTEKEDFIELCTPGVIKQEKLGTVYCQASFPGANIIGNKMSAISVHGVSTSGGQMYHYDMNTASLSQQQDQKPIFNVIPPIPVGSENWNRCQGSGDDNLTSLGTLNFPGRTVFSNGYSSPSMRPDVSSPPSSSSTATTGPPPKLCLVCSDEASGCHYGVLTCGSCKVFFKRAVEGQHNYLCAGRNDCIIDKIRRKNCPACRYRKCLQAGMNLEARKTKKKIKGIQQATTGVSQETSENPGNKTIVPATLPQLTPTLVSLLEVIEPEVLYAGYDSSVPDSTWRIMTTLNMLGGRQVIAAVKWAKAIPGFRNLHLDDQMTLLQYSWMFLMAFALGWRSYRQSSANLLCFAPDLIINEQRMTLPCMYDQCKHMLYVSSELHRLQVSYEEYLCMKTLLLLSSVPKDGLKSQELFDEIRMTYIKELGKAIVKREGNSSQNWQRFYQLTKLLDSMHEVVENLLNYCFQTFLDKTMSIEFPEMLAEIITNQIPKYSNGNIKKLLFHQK", "assay": "Binding to the glucocorticoid receptor (GR), recombinantly produced receptor, Sf9 cytosol preparations", "details": "recombinant GR, cytosol of baculovirus-infected Sf9 cells, reference [3H]-dexamethasone", "description": "The binding of the substances to the glucocorticoid receptor (GR) and other steroid hormone receptors (mineral corticoid receptor (MR), progesterone receptor (PR) and androgen receptor (AR)) is examined with the aid of recombinantly produced receptors. Cytosol preparations of Sf9 cells, which had been infected with recombinant baculoviruses, which code for the GR, are used for the binding studies. In comparison to reference substance [^3H]-dexamethasone, the substances show a high to very high affinity to GR."}, "[2]": {"test_system": "secretion of cytokine IL-8 in human monocyte cell line THP-1 triggered by lipopolysaccharide (LPS)", "assay": "Inhibition of LPS-triggered IL-8 secretion in THP-1 cells (ELISA)", "assay_type": "cell-based", "details": "IL-8 in supernatant by ELISA, read-out: IC50(IL8)", "procedure": "The concentration of the cytokines was determined in the supernatant by means of commercially available ELISA kits."}}}
{"smiles": "COc1cccc(C(Nc2cccc3nc(C)ccc23)C(O)(CCl)C(F)(F)F)c1", "note": "(centres unmarked) [Example 3]", "values": [{"measurement": "IC50", "setting": "[1]", "result": 64, "unit": "nM"}, {"measurement": "IC50", "setting": "[2]", "result": 25, "unit": "nM"}]}
